The text below walks through data of patent US12661355B2, “Compounds and methods for inducing UCP1 expression” (The Regents of the University of California, priority 2020, dated 2026).

The test system of series [1] is immortalized brown adipocytes. The series can be described thus: Global gene expression analysis (microarray, DAVID functional annotation) in immortalized brown adipocytes. It is filed as cell-based, mouse. The protocol:
Mouse RNA levels were measured by qPCR according to known methods. Data were normalized to B2m and Tbp reference genes. Human RNA was extracted using an RNA Mini Plus kit (Zymo) and gene expression determined by Taqman assay. The 1-step qPCR was run on a QuantStudio 12K Flex Real Time PCR System (ThermoFisher) using the following protocol: 50° C. for 5 minutes, 95° C. for 20 seconds, 40 cycles of 95° C. for 15 seconds and 60° C. for 60 seconds. Data were normalized to PPIA and PSMB2 reference genes. For global gene expression analysis, RNA isolated from brown adipocytes treated with compounds as indicated (four biological replicates) was hybridized to Illumina mouse Ref 8 V2.0 bead chips at the University of California, Los Angeles Neuroscience Genomics Core as previously described. Data were processed with GenomeStudio V2011.1 using the quantile normalization, background subtraction, and a present call of P<0.05.
To assess the effects of Z160 on global transcription in mouse brown adipocytes, microarray analysis of RNA isolated from immortalized brown adipocytes treated with either vehicle or Z160 was performed. […] The results of the microarray were corroborated using qPCR for representative genes from each electron transport chain complex (FIG. 5B).

Series [2] has as its system C57BL/6J male mice. Nature of the series: Thermogenesis in vivo after subcutaneous injection. The note with it: single subcutaneous injection 1.5 mg/kg. As for the experimental part:
All mouse studies were conducted in accordance with and approved by the Institutional Animal Research Committee of the University of California, Los Angeles. C57BL/6J male mice were obtained from the Jackson Laboratory. For the drug injection, Z160 (diluted in 100 μl DMSO) was injected subcutaneously, near BAT, at 1.5 mg/kg body weight and compared with vehicle alone. […] Body temperature was obtained with a rectal probe (BAT-12, Physitemp). Aspartate aminotransferase (AST) activity was determined from plasma according to the manufacturer's protocol (MAK055, Sigma).

The subject of series [3] is human brown adipocyte cell line. The series can be described thus: Cellular respiration in human brown adipocytes. It is filed as cell-based. The note with it: 10 μM for 4 days. The protocol: Human immortalized brown and white preadipocytes were obtained from Dr. Yu-Hua Tseng (Joslin Diabetes Center, Harvard Medical School, USA). The generation of the two cell lines from human neck adipose tissue biopsies and immortalization was performed as previously described but from a different donor. Cells were cultured in high glucose DMEM supplemented with 10% FBS and antibiotics. Two days after reaching confluence, cells were treated with 30 μM biotin, 500 nM insulin, 17 μM pantothenate, 100 nM dexamethasone, 2 nM 3,3′,5-Triiodo-L-thyronine, 500 μM IBMX, 30 μM indomethacin and 1 μM rosiglitazone, for 12 days. […]
Cellular respiration was measured using a Seahorse XF24 or XF96 analyzer (Agilent) following known protocols Immortalized brown adipocytes were differentiated in 6-well plates and replated in the Seahorse XF24 plates at a density of 50,000 cells per well using trypsin and collagenase type II. […] Oxygen consumption rates were measured before and after the sequential injection of 1 μM oligomycin, 1 μM FCCP, and 0.5 μM rotenone/antimycin A. For these cells, results were normalized to cell count determined by nuclei fluorescent staining with Hoescht staining imaged on Cytation 5 Imaging Reader and analysis with Gen5 software (BioTek). […] Maximal respiration was determined after FCCP injection.

The mark [4] stands for this setting: genes >1.5-fold down-regulated, DAVID.
Where [5] appears, read: genes >1.5-fold up-regulated, DAVID.

In the case of `COc1ccc(NC(=O)CSc2nc3ccccc3c(=O)[nH]2)c(OC)c1` [Z160], in series [1] (setting [4]), the “Genes, GO cellular component Down: Basement membrane” value turned out to be 17; the “Genes, GO cellular component Down: Cell surface” value was found to be 45; the “Genes, GO cellular component Down: Cytoplasm” value is given as 178; the “Genes, GO cellular component Down: Extracellular exosome” value turned out to be 119. In addition, in series [1] (setting [4]), the “Genes, GO cellular component Down: Extracellular region” value came out at 86; the “Genes, GO cellular component Down: Extracellular space” value was determined as 72; the “Genes, GO cellular component Down: Focal adhesion” value is listed as 25; the “Genes, GO cellular component Down: Proteinaceous extracellular matrix” value turned out to be 35. In series [1] (setting [5]), the “Genes, GO cellular component Up: Mitochondrial inner membrane” value was 27 and the “Genes, GO cellular component Up: Mitochondrion” value is 88. For the same compound, in series [1] (microarray, vs vehicle), the “Ucp1 increase (microarray)” value was 2.5 fold, the “probes down-regulated by at least 1.5-fold” value was found to be 504 probes and the “probes up-regulated by at least 1.5-fold” value amounted to 581 probes. For the same compound, in series [2], the “Ucp1 mRNA and protein levels in BAT” value is on record as “elevated”; the “expression of genes implicated in mitochondrial function and lipolysis in BAT” value is recorded as “enhanced expression”; the plasma glucose levels is 157.6 ± 26.2 mg/dL. In series [2] (measured 24 h later), the body temperature turned out to be 38.3 °C. The “increase in body temperature” value in series [2] (measured 24 h later, vs vehicle) was found to be 0.8 °C. Moreover, the “liver toxicity assessed by circulating aspartate aminotransferase (AST) levels” value in series [2] (plasma) is on record as “No liver toxicity”. Also, in series [3], the maximal respiration entry was “increased” and the “mitochondrial respiration (primarily uncoupled respiration)” value was “increased”.
